The subject of series [1] is uninfected H9 cells. Nature of the series: Toxicity to uninfected H9 cells (cell growth). The format is cell-based. The settings on record: for IC50: Homo sapiens. As to the method: (§1) HIV inhibition assay. The HIV inhibition was measured as described herein. Briefly, H9 cells, a T cell line, (3.5×10^6 cells/ml) were incubated in the presence or absence of HIV-1 (IIIB strain, 0.01-0.1 TCID50 /cell) for 1 hour at 37° C. Cells were washed thoroughly and resuspended at a final concentration of 2×10^5 cells/ml in the presence or absence of compound. After incubation for 3-4 days at 37° C., the cell density of uninfected cultures was determined by cell count to assess toxicity of the drug. An aliquot of each cell-free supernatant was assayed by p24 antigen ELISA to quantitate the amount of HIV-1 present in the infected cultures. Test compounds were considered to be active at a particular concentration if p24 antigen levels were less than 70% of infected, untreated controls and were nontoxic to uninfected H9 cells.
(§2) HIV Growth Inhibition Assay: The T cell line, H9, and the promonocytic cell line, U937, were maintained separately in continuous culture with complete medium (RPMI 1640 and […] fetal calf serum (FCS) at 5% CO2 and 37° C. Cell lines were used in experiments only when in log phase of growth; whereas, uninfected peripheral blood mononuclear cells (PBMCs) were first stimulated with PHA (1 μg/ml) for 3 days. All cell targets were incubated with HIV-1 (IIIB isolate, TCID50 10 ^4 IU/mi, at a multiplicity of infection of 0.1-0.01 IU/cell) for 1 hour at 37° C. and 5% CO2. The cell lines and PBMCs were washed thoroughly to remove unabsorbed virions and resuspended at 4×10^5 cells/ml in complete medium or complete medium with 10% v/v interleukin […] IL-2, respectively. Aliquots ( ml) were placed in wells of 24-well culture plates containing an equal volume of test compound (diluted in the appropriate culture medium). After incubation for 4 days at 37° C., cell density of uninfected cultures was determined by counting cells in a Coulter counter to assess toxicity of the test compound. A p24 antigen ELISA assay was used to determine the level of virus released in the medium of the HIV-infected cultures. The p24 antigen assay uses a HIV-1 anti-p24 specific monoclonal antibody as the capture antibody coated-on 96-well plates. Following a sample incubation period, rabbit serum containing antibodies for HIV-1 p24 is used to tag any p24 "captured" onto the microtiter well surface. Peroxidase conjugated goat anti-rabbit serum is then used to tag HIV-1 p24 specific rabbit antibodies which have complexed with captured p24. […] The cut-off for the p24 ELISA assay is 12. pg/ml. P24 in the culture medium was quantitated against a standard curve containing known amounts of p24. The effective (EC50) and inhibitory (IC50) concentrations (for anti-HIV activity and cytotoxicity, respectively) were determined graphically. Both the EC50 and IC50 values were calculated by plotting drug concentration versus percent inhibition, and then identifying a 50% inhibition value from the graph.

In series [2] the test system is HIV-1 replication in H9 cells. Nature of the series: HIV-1 replication inhibition in acutely infected H9 lymphocytes (p24 antigen ELISA). The format is cell-based, HIV-1 (IIIB strain). The settings on record: for EC50: Human immunodeficiency virus 1, H9, acutely infected H9 cells; for anti-HIV activity in H9 cells (in words): acutely infected H9 cells. Here is the method:
as §1, §2
Background: An ELISA detects its analyte on a solid surface through an enzyme-linked reagent.

The subject of series [3] is uninfected H9 cells. Nature of the series: Combination study of suksdorfin with AZT, ddI and ddC: toxicity to uninfected H9 cells. The format is cell-based. The settings on record: Homo sapiens, H9, combinations with 4 μg/ml suksdorfin. Here is the method: Pharm. Asso. […] Aliquots ( ml) were placed in wells of 24-well culture plates containing an equal volume of test compound (diluted in the appropriate culture medium). After incubation for 4 days at 37° C., cell density of uninfected cultures was determined by counting cells in a Coulter counter to assess toxicity of the test compound. A p24 antigen ELISA assay was used to determine the level of virus released in the medium of the HIV-infected cultures. The p24 antigen assay uses a HIV-1 anti-p24 specific monoclonal antibody as the capture antibody coated-on 96-well plates. Following a sample incubation period, rabbit serum containing antibodies for HIV-1 p24 is used to tag any p24 "captured" onto the microtiter well surface. […] The cut-off for the p24 ELISA assay is 12. pg/ml. P24 in the culture medium was quantitated against a standard curve containing known amounts of p24. The effective (EC50) and inhibitory (IC50) concentrations (for anti-HIV activity and cytotoxicity, respectively) were determined graphically.
Combination Study: The experimental design is identical to the growth inhibition assay except that various concentrations of AZT, ddI or ddC were also added to cultures of acutely HIV-1 infected H9 cells that either have or have no received different concentrations of suksdorfin.

Series [4] has as its system HIV-1 replication in H9 cells. Nature of the series: Combination study of suksdorfin with AZT, ddI and ddC: HIV-1 replication in acutely infected H9 cells. The note with it: for EC50 / IC50: Human immunodeficiency virus 1, H9; for EC50 / IC50 / Therapeutic Index: combinations with 4 μg/ml suksdorfin; for EC50: read-out: EC50; for IC50: concentration which inhibits viral replication by 50%, read-out: IC50 (μM)^b. The format is cell-based, HIV-1 (IIIB). Here is the method:
as §2, with “surface.” for “surface. Peroxidase conjugated goat anti-rabbit serum is then used to tag HIV-1 p24 specific rabbit antibodies which have complexed with captured p24.”, “The effective (EC50) and inhibitory (IC50) concentrations (for anti-HIV activity and cytotoxicity, respectively) were determined graphically.” left out
Combination Study: The experimental design is identical to the growth inhibition assay except that various concentrations of AZT, ddI or ddC were also added to cultures of acutely HIV-1 infected H9 cells that either have or have no received different concentrations of suksdorfin. The concentrations of AZT, ddI and ddC were 5 ten-fold dilutions starting at 1 μg/ml. [drawing 104] [drawing 105]

The mark [5] stands for this setting: H9, concentration which inhibits uninfected cell growth by 50%.
Setting [6] is: H9, read-out: IC50 (μM)^a, Table 14, concentration which inhibits uninfected cell growth by 50%.
The mark [7] stands for this setting: concentration which inhibits viral replication by 50%, Inactive = No suppression of HIV-1 replication in H9 cells.
Where [8] appears, read: Human immunodeficiency virus 1, H9, read-out: IC50 (μM)^b.
Setting [9] is: IC50 for cell growth inhibition divided by EC50 for HIV inhibition, H9.
The mark [10] stands for this setting: H9, Table 14, concentration which inhibits uninfected cell growth by 50%, read-out: IC50 (μM)^a.
The mark [11] stands for this setting: H9, concentration which inhibits uninfected cell growth by 50%, read-out: IC50.
[12] abbreviates: concentration which inhibits viral replication by 50%, Inactive = No suppression of HIV-1 replication in H9 cells, read-out: EC50.
[13] abbreviates: Human immunodeficiency virus 1, Table 14, concentration which inhibits viral replication by 50%, Inactive = No suppression of HIV-1 replication in H9 cells, read-out: IC50 (μM)^b.
Setting [14] is: Table 16, concentration which inhibits uninfected cell growth by 50%, read-out: IC50 (μM)^a.

Where only a bound is given, the exact number is not on record here.

The IC50 is the concentration at which inhibition is half-maximal. Broadly, the EC50 is the midpoint of the concentration-response curve. With `CC(C)=CCOc1c2occc2cc2ccc(=O)oc12` [Imperatorin, imperatorin, reference compound], the IC50 was > 74.1 µM in series [1] (setting [5]), > 74.1 µM in series [1] (setting [6]) and 11.1 µM in series [2] (setting [8]). The compound also yielded an EC50 in series [2] (setting [7]) of 11.1 µM. Also, the “Therapeutic Index” value in series [2] (setting [9]) and in series [2] (Table 14) was > 6.7 each time.
For the compound `CC(C)=CCOc1c2ccoc2cc2oc(=O)ccc12` [Isoimperatorin, isoimperatorin, reference compound], the half-inhibitory concentration (IC50) was > 185 µM in series [1] (setting [10]), > 185 µM in series [1] (setting [11]) and 40.7 µM in series [2] (setting [13]). The EC50 in series [2] (setting [12]) came to 40.7 µM. Also, the “Therapeutic Index” value in series [2] (setting [9]) and in series [2] (Table 14) was > 4.6 throughout.
Consider `CC1(C)O[C@H]1COc1c2ccoc2cc2oc(=O)ccc12` [Oxypeucedanin, oxypeucedanin, reference compound], for which the half-inhibitory concentration (IC50) in series [1] (setting [10]) was > 69.9 µM; in series [1] (setting [11]), > 69.9 µM; in series [2] (setting [13]), 31.5 µM. Further, the EC50 in series [2] (setting [12]) was found to be 31.5 µM. For the same compound, the “Therapeutic Index” value in series [2] (setting [9]) and in series [2] (Table 14) was > 2.2 each time.
Take `C/C=C(/C)C(=O)O[C@@H]1c2c(ccc3ccc(=O)oc23)OC(C)(C)[C@@H]1OC(C)=O` [Pteryxin, pteryxin, reference compound]: the “increase of toxicity on replacing 4'-isovaleryl by angeloyl (versus suksdorfin)” value in series [1] (H9 cells) is recorded as 5 fold. In addition, the IC50 in series [1] (setting [5]) was > 10.4 µM; in series [1] (setting [6]), > 10.4 µM; in series [2] (setting [8]) it was 4.6 µM. In series [2] (setting [7]), this compound displayed an EC50 of 4.6 µM. Also, the “Therapeutic Index” value in series [2] (setting [9]) and in series [2] (Table 14) was > 3.7 each time. Further, the figures for the “anti-HIV activity in H9 cells (in words)” value in series [2] and in series [2] (listed as pteryxn) were “slightly reduced anti-HIV-l activity” and “slightly reduced anti-HIV-1 activity”, respectively.
On to `Nc1ccn([C@H]2CC[C@@H](CO)O2)c(=O)n1` [ddC, dideoxycytidine], for which the IC50 was > 1 µg/mL in series [3] (Table 5, read-out: IC50); > 1 µg/mL in series [3] (setting [14]); 0.004 µg/mL in series [4] (Table 16). Besides, the concentration giving a half-maximal response (EC50) in series [4] (Table 5) was determined as 0.004 µg/mL. In addition, the “Therapeutic Index” value in series [4] (Table 5) and in series [4] (Table 16) was > 250 throughout. The “decrease of EC50 in presence of suksdorfin” value in series [4] (with 4 μg/ml suksdorfin, H9) was determined as 40 fold.
Turning to `O=c1[nH]cnc2c1ncn2[C@H]1CC[C@@H](CO)O1` [ddI], the concentration for half-maximal inhibition (IC50) was > 1 µg/mL in series [3] (Table 5, read-out: IC50); > 1 µg/mL in series [3] (setting [14]); 0.4 µg/mL in series [4] (Table 16). Also, the half-maximal effective concentration (EC50) in series [4] (Table 5) amounted to 0.4 µg/mL. The “Therapeutic Index” value in series [4] (Table 5) is > 2.5; in series [4] (Table 16), > 2.5; in series [2] (setting [9]) it was > 400. In series [4] (with 4 μg/ml suksdorfin, H9), the “decrease of EC50 in presence of suksdorfin” value was determined as 4000 fold. For the same compound, the “reduction of amount of nucleoside needed in presence of suksdorfin” value in series [4] (with 4 μg/ml suksdorfin, H9) is 4000 fold.

The values above are taken from US6319929A, “Suksdorfin analogs, compositions thereof, and methods for making and using thereof” (priority 1998, dated 2001).
